Holding throughout (type): functional
For experiment [1], the system named is Cutibacterium acnes. Kind of experiment: Antibacterial activity against Propionibacterium acnes by two-fold dilution method.
The subject of experiment [2] is Staphylococcus aureus. Kind of experiment: Antibacterial activity against Staphylococcus aureus by two-fold dilution method. As to conditions: for MIC: Staphylococcus aureus.
The subject of experiment [3] is Escherichia coli. Kind of experiment: Antibacterial activity against Escherichia coli by two-fold dilution method.
Experiment [4] concerns Candida albicans. Kind of experiment: […] activity against Candida albicans by two-fold dilution method. Conditions: for MIC: Candida albicans.
Experiment [5] has as its system Pseudomonas aeruginosa. Kind of experiment: Antibacterial activity against Pseudomonas aeruginosa by two-fold dilution method.

Values after ≈ are worked out from the molar mass of the structure shown.

The results in this text go back to ChEMBL document CHEMBL5579805, “Synthesis, antibacterial activity, and 3D-QASR studies of matrine-indole derivatives as potential antibiotics” (2024).

For orientation: MIC means the lowest concentration that inhibits growth of the organism. High values mean weaker potency, low ones greater potency. Consider `COC(=O)CCC[C@@H]1[C@H]2CCCN3CCC[C@@H](CN1C(=O)c1cc4ccc(Cl)cc4n1Cc1cc(C(C)(C)C)cc(C(C)(C)C)c1)[C@@H]23`, for which the minimum inhibitory concentration (MIC) in experiment [1] worked out at 0.29 µg/mL (≈ 0.439 µM); in experiment [2] it was 0.093 µg/mL (≈ 0.141 µM); in experiment [3] it was 1.49 µg/mL (≈ 2.25 µM); in experiment [4] it was 9.02 µg/mL (≈ 13.7 µM); in experiment [5] it was 0.466 µg/mL (≈ 0.706 µM). Moreover, the “-logMIC” value was 1.032 in experiment [2] and -0.955 in experiment [4].

As to `COC(=O)CCC[C@@H]1[C@H]2CCCN3CCC[C@@H](CN1C(=O)c1cc4ccc(Cl)cc4n1Cc1cccc(OCc4ccccc4)c1)[C@@H]23`, the MIC in experiment [1] was 0.093 µg/mL (≈ 0.142 µM); in experiment [2] it was 0.117 µg/mL (≈ 0.179 µM); in experiment [3], 0.894 µg/mL (≈ 1.37 µM); in experiment [4] it was 9.8 µg/mL (≈ 15 µM); in experiment [5] it was 0.975 µg/mL (≈ 1.49 µM). Besides, the “-logMIC” value was 0.932 in experiment [2] and -0.991 in experiment [4].

On to `COC(=O)CCC[C@@H]1[C@H]2CCCN3CCC[C@@H](CN1C(=O)c1cc4ccc(Cl)cc4n1Cc1cccc(C(F)(F)F)c1)[C@@H]23`, for which the minimal inhibitory concentration (MIC) in experiment [1] is 0.058 µg/mL (≈ 0.0941 µM); in experiment [2], 0.136 µg/mL (≈ 0.221 µM); in experiment [3], 0.559 µg/mL (≈ 0.907 µM); in experiment [4], 4.52 µg/mL (≈ 7.33 µM); in experiment [5], 0.234 µg/mL (≈ 0.38 µM). The “-logMIC” value was 0.866 in experiment [2] and -0.655 in experiment [4].

With `COC(=O)CCC[C@@H]1[C@H]2CCCN3CCC[C@@H](CN1C(=O)c1cc4ccc(Cl)cc4n1Cc1cc(C#N)ccc1F)[C@@H]23`, the minimal inhibitory concentration (MIC) came to 0.2 µg/mL (≈ 0.338 µM) in experiment [1]; 3.86 µg/mL (≈ 6.54 µM) in experiment [2]; 0.644 µg/mL (≈ 1.09 µM) in experiment [3]; 10.6 µg/mL (≈ 17.9 µM) in experiment [4]; 0.658 µg/mL (≈ 1.11 µM) in experiment [5]. The “-logMIC” value in experiment [2] was 0.587; in experiment [4], -1.02.

Consider `COC(=O)CCC[C@@H]1[C@H]2CCCN3CCC[C@@H](CN1C(=O)c1cc4ccc(Cl)cc4n1Cc1cc(OC)ccc1Br)[C@@H]23`, for which the minimal inhibitory concentration (MIC) in experiment [1] was 0.175 µg/mL (≈ 0.266 µM); in experiment [2] it was 0.774 µg/mL (≈ 1.18 µM); in experiment [3], 0.933 µg/mL (≈ 1.42 µM); in experiment [4], 9.92 µg/mL (≈ 15.1 µM); in experiment [5] it was 0.323 µg/mL (≈ 0.492 µM). The “-logMIC” value in experiment [2] was 0.111; in experiment [4] it was -0.997.

On to `COC(=O)CCC[C@@H]1[C@H]2CCCN3CCC[C@@H](CN1C(=O)c1cc4ccc(Cl)cc4n1Cc1ccccc1C(C)(C)C)[C@@H]23`, for which the MIC worked out at 0.354 µg/mL (≈ 0.586 µM) in experiment [1]; 0.178 µg/mL (≈ 0.295 µM) in experiment [2]; 1.14 µg/mL (≈ 1.88 µM) in experiment [3]; 7.9 µg/mL (≈ 13.1 µM) in experiment [4]; 0.926 µg/mL (≈ 1.53 µM) in experiment [5]. Also, the “-logMIC” value was 0.75 in experiment [2] and -0.898 in experiment [4].

On to `COC(=O)CCC[C@@H]1[C@H]2CCCN3CCC[C@@H](CN1C(=O)c1cc4ccc(Cl)cc4n1Cc1ccccc1C#N)[C@@H]23`, for which the MIC is 0.848 µg/mL (≈ 1.48 µM) in experiment [1]; 0.48 µg/mL (≈ 0.837 µM) in experiment [2]; 0.823 µg/mL (≈ 1.44 µM) in experiment [3]; 11.2 µg/mL (≈ 19.6 µM) in experiment [4]; 0.693 µg/mL (≈ 1.21 µM) in experiment [5]. Moreover, the “-logMIC” value in experiment [2] was 0.319; in experiment [4] it was -1.05.

For `O=C1CCC[C@@H]2[C@H]3CCCN4CCC[C@@H](CN12)[C@@H]34` [MATRINE], the MIC in experiment [1] is 16 µg/mL (≈ 64.3 µM); in experiment [2], 7.43 µg/mL (≈ 29.9 µM); in experiment [3], 5.46 µg/mL (≈ 22 µM); in experiment [4], 8 µg/mL (≈ 32.2 µM); in experiment [5] it was 6.73 µg/mL (≈ 27.1 µM).
